Results as given in US20050245463A1, “Novel antiretroviral sulfolipids extracted from spirulinae, method for obtaining same, compositions containing same and use thereof as inhibitors of the hiv virus reverse transcriptase” (priority 2002, published 2005).
In brackets after ≈: the same amount, converted by molar mass.

Experiments:
Type in all cases: biochemical
[1] = target: T1, RNase-H of HIV-1 reverse transcriptase (Human immunodeficiency virus type 1 group M subtype B, UniProt P03366); test: Inhibition of the RNase-H of HIV-1 reverse transcriptase; settings: for RNase-H % of initial enzymatic activity: 100 μM of each sulfolipid molecular species, residual activity as % of control without inhibitor; for inhibition of the RNase-H of HIV-1 reverse transcriptase (in words): ranking among molecular species
T1 construct: The HIV-1 and HIV-2 reverse transcriptases are the hetero-dimers p.66/p.5 l and p.68/p.55, respectively; made in house; host or cells: E. coli
Method: (§1) The reverse transcriptases used in this study are the recombinant enzymes expressed in E. coli and purified from the bacterial extracts (16). The HIV-1 reverse transcriptase expression plasmid originates from the proviral isolate BH-10 (17), while the HIV-2 reverse transcriptase expression plasmid originates from the isolate pRod (18). The HIV-1 and HIV-2 reverse transcriptases are the hetero-dimers p.66/p.5 l and p.68/p.55, respectively.
(§2) The enzymatic tests are performed by the method of Loya et al. (19). The DNA polymerase activity is measured by monitoring the incorporation of […] into the product insoluble in trichloroacetic acid (TCA), in the presence of different concentrations of sulfolipids. The RNase-H activity is measured by measuring the delivery of the TCA-soluble product from the synthetic substrate [^3H]poly(rA)n.poly (dT)n. This substrate is prepared by the procedure of Hizi et al. (1991) (20). In all the inhibition experiments, the enzymes are preincubated for 5 min at 30° C. in the absence or presence of inhibitors at different concentrations. The enzymatic reactions are started by the addition of appropriate substrate at 37° C. for 30 min.
(§3) The residual enzymatic activity is calculated relative to the initial rates of the (linear) reaction observed in the absence of sulfolipids.
(b) One unit of RNase-H activity is the amount of enzyme which catalyzes the hydrolysis of one pmol of AMP at 37° C. over 30 min under standard test conditions.

[2] = target: T2, DNA polymerase of HIV-1 reverse transcriptase (Human immunodeficiency virus type 1 group M subtype B, UniProt P03366); test: Inhibition of the DNA polymerase of HIV-1 reverse transcriptase; settings: for IC50: concentration that inhibits 50% of the initial enzymatic activity; for IC90: concentration that inhibits 90% of the initial enzymatic activity; for inhibitory activity towards the DNA polymerase of HIV-1 reverse transcriptase (in words): ranking among molecular species
T2 construct: The HIV-1 and HIV-2 reverse transcriptases are the hetero-dimers p.66/p.5 l and p.68/p.55, respectively; made in house; host or cells: E. coli
Method: as §1, §2, §3
The concentration of inhibitors that leads to 50% inhibition of the enzymatic activities (IC50) is calculated from the curves of inhibition as a function of inhibitor (sulfolipid) concentration.
(§4) (a) One unit of DNA polymerase activity is the amount of enzyme which catalyzes the incorporation of one pmol of dNTP into the DNA product at 37° C. over 30 min under standard test conditions.

[3] = target: T3, DNA polymerase activity of HIV-2 reverse transcriptase (Human immunodeficiency virus type 2 subtype A, UniProt P04584); test: DNA polymerase activity of HIV-2 reverse transcriptase
T3 construct: The HIV-1 and HIV-2 reverse transcriptases are the hetero-dimers p.66/p.5 l and p.68/p.55, respectively; made in house; host or cells: E. coli
Method: as §1, §2, §3, §4

T3 sequence (P04584 613-1051): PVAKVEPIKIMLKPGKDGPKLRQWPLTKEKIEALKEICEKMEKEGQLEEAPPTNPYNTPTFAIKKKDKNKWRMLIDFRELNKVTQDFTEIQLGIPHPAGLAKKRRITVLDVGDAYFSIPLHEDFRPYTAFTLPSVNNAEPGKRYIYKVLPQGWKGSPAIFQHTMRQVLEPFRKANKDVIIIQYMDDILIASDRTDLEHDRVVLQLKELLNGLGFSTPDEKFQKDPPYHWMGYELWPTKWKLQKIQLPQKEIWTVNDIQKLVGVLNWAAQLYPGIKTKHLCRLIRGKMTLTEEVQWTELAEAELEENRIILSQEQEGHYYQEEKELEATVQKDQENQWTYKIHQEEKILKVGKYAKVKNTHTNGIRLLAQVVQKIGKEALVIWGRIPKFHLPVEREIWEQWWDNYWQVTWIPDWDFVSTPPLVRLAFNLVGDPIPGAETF
T3 sequence (P04584 613-1171): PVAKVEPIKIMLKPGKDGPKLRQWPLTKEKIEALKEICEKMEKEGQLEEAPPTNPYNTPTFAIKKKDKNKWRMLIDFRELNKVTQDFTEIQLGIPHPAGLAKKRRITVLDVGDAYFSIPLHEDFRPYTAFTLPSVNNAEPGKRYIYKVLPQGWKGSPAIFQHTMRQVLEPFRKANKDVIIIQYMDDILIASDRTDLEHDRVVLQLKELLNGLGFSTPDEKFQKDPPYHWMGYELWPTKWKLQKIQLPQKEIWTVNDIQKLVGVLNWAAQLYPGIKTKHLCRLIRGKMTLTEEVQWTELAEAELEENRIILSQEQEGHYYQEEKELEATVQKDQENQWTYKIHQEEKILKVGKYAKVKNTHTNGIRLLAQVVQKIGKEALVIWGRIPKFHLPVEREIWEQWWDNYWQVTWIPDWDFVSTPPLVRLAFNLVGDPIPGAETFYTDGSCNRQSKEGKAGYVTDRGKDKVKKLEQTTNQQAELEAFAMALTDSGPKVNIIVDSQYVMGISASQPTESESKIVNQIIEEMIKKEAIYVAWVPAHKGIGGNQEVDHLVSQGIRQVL

SMILES | RNase-H % of initial enzymatic activity [1] | inhibition of the RNase-H of HIV-1 reverse transcriptase (in words) [1] | IC50 [2] | IC90 [2] | inhibitory activity towards the DNA polymerase of HIV-1 reverse transcriptase (in words) [2] | inhibitory activity towards the DNA polymerase activity of HIV-2 reverse transcriptase (in words) [3] | further results
CCCCCCCCC=CCCCCCCCC(=O)OCC(COC1OC(CS(=O)(=O)O)C(O)C(O)C1O)OC(=O)CCCCCCCC=CCCCCCCCC (stereo not shown) [C18:1/C18:1] | 60 + 2% | highest activities | 23.7 µM | 68.3 µg/mL (≈ 80.6 µM) | highest activities | the highest | Residual enzymatic activity (%) ([3]; 4.0 + 0.5 μg/ml): 100 + 1%; Residual enzymatic activity (%) ([3]; 8.0 + 0.6 μg/ml): 92 + 1%; Residual enzymatic activity (%) ([3]; 16.0 + 0.7 μg/ml): 70 + 2%; Residual enzymatic activity (%) ([3]; 26.1 + 1.8 μg/ml): 50 + 1%; Residual enzymatic activity (%) ([3]; 36.0 + 1.0 μg/ml): 35 + 1%; Residual enzymatic activity (%) ([3]; 71.9 + 1.0 μg/ml): 22 + 2%
CCCCCCC=CCCCCCCCC(=O)OCC(COC1OC(CS(=O)(=O)O)C(O)C(O)C1O)OC(=O)CCCCCCCCCCCCCCC (stereo not shown) [C16:1/C16:0] | 42 + 3% | highest activities | 110 µM | 302 µg/mL (≈ 381 µM) | – | – | Residual enzymatic activity (%) ([3]; 10.2 + 0.5 μg/ml): 100 + 1%; Residual enzymatic activity (%) ([3]; 25.0 + 0.6 μg/ml): 96 + 1%; Residual enzymatic activity (%) ([3]; 48.9 + 0.9 μg/ml): 69 + 1%; Residual enzymatic activity (%) ([3]; 97.5 + 1.5 μg/ml): 58 + 2%; Residual enzymatic activity (%) ([3]; 108.0 + 3.0 μg/ml): 50 + 1%; Residual enzymatic activity (%) ([3]; 198.5 + 3.4 μg/ml): 24 + 2%
CCCCCCCCCCCCCCCC(=O)OCC(COC1OC(CS(=O)(=O)O)C(O)C(O)C1O)OC(=O)CCCCCCCCCCCCCCC (stereo not shown) [C16:0/C16:0] | 47 + 4% | highest activities | 133 µM | 452 µg/mL (≈ 568 µM) | – | – | –
CCCCCCCCC=CCCCCCCCC(=O)OCC(COC1OC(CS(=O)(=O)O)C(O)C(O)C1O)OC(=O)CCCCCCCCCCCCCCC (stereo not shown) [C18:1/C16:0] | 64 + 6% | highest activities | 29.1 µM | 73.6 µg/mL (≈ 89.6 µM) | highest activities | have an inhibitory activity | Residual enzymatic activity (%) ([3]; 4.8 + 0.9 μg/ml): 100 + 1%; Residual enzymatic activity (%) ([3]; 9.6 + 0.9 μg/ml): 93 + 2%; Residual enzymatic activity (%) ([3]; 19.1 + 0.9 μg/ml): 74 + 2%; Residual enzymatic activity (%) ([3]; 33.5 + 2.0 μg/ml): 50 + 1%; Residual enzymatic activity (%) ([3]; 38.3 + 1.8 μg/ml): 42 + 2%; Residual enzymatic activity (%) ([3]; 76.5 + 2.0 μg/ml): 24 + 2%
CCCCCC=CCC=CCCCCCCCC(=O)OCC(COC1OC(CS(=O)(=O)O)C(O)C(O)C1O)OC(=O)CCCCCCCC=CCC=CCCCCC (stereo not shown) [C18:2/C18:2] | 100% | – | 331 µM | 840 µg/mL (≈ 996 µM) | – | – | –
CCCCCC=CCC=CCCCCCCCC(=O)OC(COC(=O)CCCCCCCC=CCCCCCCCC)COC1OC(CS(=O)(=O)O)C(O)C(O)C1O (stereo not shown) [C18:1/C18:2] | 100% | – | 248 µM | 628 µg/mL (≈ 743 µM) | – | – | –
CCCCCC=CCC=CCC=CCCCCC(=O)OCC(COC1OC(CS(=O)(=O)O)C(O)C(O)C1O)OC(=O)CCCCCCCCCCCCCCC (stereo not shown) [γC18:3/C16:0] | 100% | – | 218 µM | 533 µg/mL (≈ 652 µM) | – | – | –
CCCCCC=CCC=CCCCCCCCC(=O)OCC(COC1OC(CS(=O)(=O)O)C(O)C(O)C1O)OC(=O)CCCCCCCC=CCCCCCCCC (stereo not shown) [C18:2/C18:1] | 100% | – | 297 µM | 753 µg/mL (≈ 891 µM) | – | – | –
CCCCCC=CCC=CCCCCCCCC(=O)OCC(COC1OC(CS(=O)(=O)O)C(O)C(O)C1O)OC(=O)CCCCCCCCCCCCCCC (stereo not shown) [C18:2/C16:0] | 100% | – | 92 µM | 281 µg/mL (≈ 344 µM) | highest activities | have an inhibitory activity | Residual enzymatic activity (%) ([3]; 9.5 + 0.9 μg/ml): 100 + 1%; Residual enzymatic activity (%) ([3]; 23.8 + 0.9 μg/ml): 96 + 2%; Residual enzymatic activity (%) ([3]; 47.7 + 1.8 μg/ml): 70 + 2%; Residual enzymatic activity (%) ([3]; 95.4 + 2.0 μg/ml): 56 + 2%; Residual enzymatic activity (%) ([3]; 105.0 + 5.0 μg/ml): 50 + 1%; Residual enzymatic activity (%) ([3]; 190.8 + 4.8 μg/ml): 25 + 2%
